Test results as given in ChEMBL document CHEMBL4219088, “Novel 4-aminoquinazoline derivatives induce growth inhibition, cell cycle arrest and apoptosis via PI3Kα inhibition” (Bioorg Med Chem, 2018).
One block for each compound: values may come before it. Activity calls are given as the source filed them. The rule behind the calls is not given here.

Key:
HCT-116 [1] = test: Cell cycle arrest in human HCT116 cells assessed as accumulation at G0/G1 phase at 2 uM after 24 hrs by propidium iodide staining based flow cytometry (reference value: 44.01%); type: functional
MRC5 = test: Antiproliferative activity against human MRC5 cells after 72 hrs by sulforhodamine B assay; type: cell-based; conditions: MRC5, 72 h
HCT-116 [2] = test: Downregulation of CDK2 protein expression in human HCT116 cells at 0.5 to 2 uM after 24 hrs by Western blot analysis; type: functional, cell-based
[3] = target: Phosphatidylinositol 4,5-bisphosphate 3-kinase catalytic subunit alpha isoform (Homo sapiens) (UniProt P42336); test: Inhibition of PI3Kalpha in human HCT116 cells assessed as reduction in Akt phosphorylation at Ser473 residues at 0.5 to 2 uM after 24 hrs by Western blot analysis; type: cell-based
Sequence of Phosphatidylinositol 4,5-bisphosphate 3-kinase catalytic subunit alpha isoform (Homo sapiens) (P42336 whole entry, canonical isoform): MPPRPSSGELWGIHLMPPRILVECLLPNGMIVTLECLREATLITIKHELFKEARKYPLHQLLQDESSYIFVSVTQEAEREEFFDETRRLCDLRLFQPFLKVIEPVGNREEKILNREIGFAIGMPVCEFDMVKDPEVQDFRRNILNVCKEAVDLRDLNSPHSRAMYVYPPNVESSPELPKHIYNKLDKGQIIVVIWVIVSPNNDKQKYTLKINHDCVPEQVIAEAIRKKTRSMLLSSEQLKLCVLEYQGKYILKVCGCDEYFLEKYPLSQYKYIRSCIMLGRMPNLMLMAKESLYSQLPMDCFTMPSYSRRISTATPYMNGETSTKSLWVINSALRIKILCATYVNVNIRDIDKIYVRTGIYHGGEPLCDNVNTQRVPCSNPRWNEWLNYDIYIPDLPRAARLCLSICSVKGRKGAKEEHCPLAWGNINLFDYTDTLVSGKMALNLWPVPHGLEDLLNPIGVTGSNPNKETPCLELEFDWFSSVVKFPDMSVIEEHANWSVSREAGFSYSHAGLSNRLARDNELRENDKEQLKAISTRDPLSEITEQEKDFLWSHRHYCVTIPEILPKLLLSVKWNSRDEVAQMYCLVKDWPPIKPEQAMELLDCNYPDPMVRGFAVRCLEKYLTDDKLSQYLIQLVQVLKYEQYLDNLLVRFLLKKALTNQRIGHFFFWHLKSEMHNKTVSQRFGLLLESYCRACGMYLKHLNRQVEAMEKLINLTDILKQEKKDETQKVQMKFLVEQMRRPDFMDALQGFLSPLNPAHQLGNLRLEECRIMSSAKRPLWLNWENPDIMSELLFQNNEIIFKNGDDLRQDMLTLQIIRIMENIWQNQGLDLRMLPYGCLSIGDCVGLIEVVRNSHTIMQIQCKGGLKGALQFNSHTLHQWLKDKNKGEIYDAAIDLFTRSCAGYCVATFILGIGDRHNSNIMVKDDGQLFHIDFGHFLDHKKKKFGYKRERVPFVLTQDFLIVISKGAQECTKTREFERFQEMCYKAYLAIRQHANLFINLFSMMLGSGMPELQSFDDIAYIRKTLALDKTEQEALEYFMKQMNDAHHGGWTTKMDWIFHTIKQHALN

[4] = target: Phosphatidylinositol 4,5-bisphosphate 3-kinase catalytic subunit alpha isoform (Homo sapiens) (UniProt P42336); test: Inhibition of PI3Kalpha in human HCT116 cells assessed as reduction in Akt phosphorylation at Ser473 residues after 24 hrs by Western blot analysis; type: cell-based
HCT-116 [5] = test: Induction of apoptosis in human HCT116 cells assessed as viable cells at 1 uM after 48 hrs by Annexin V-FITC/propidium iodide staining based flow cytometry (reference value: 94.06%); type: functional; conditions: HCT-116, 48 h, read-out: Activity
HCT-116 [6] = test: Induction of apoptosis in human HCT116 cells assessed as increase in cleaved caspase 3 level at 4 uM after 48 hrs by Western blot analysis; type: functional, cell-based
HEK293 = test: Antiproliferative activity against HEK293 cells after 72 hrs by sulforhodamine B assay; type: cell-based; conditions: Homo sapiens, HEK293, 72 h
HCT-116 [7] = test: Cell cycle arrest in human HCT116 cells assessed as accumulation at subG1 phase at 0.5 uM after 24 hrs by propidium iodide staining based flow cytometry (reference value: 2.25%); type: functional
PI3K p110 beta/p85 alpha = PI3K p110 beta/p85 alpha (Homo sapiens, UniProt P42338); test: Inhibition of N-terminal His6-tagged recombinant full-length PI3Kbeta (unknown origin)/untagged recombinant full length p85alpha expressed in baculovirus infected Sf21 insect cells by ELISA
Sequence of PI3K p110 beta/p85 alpha (P27986 whole entry): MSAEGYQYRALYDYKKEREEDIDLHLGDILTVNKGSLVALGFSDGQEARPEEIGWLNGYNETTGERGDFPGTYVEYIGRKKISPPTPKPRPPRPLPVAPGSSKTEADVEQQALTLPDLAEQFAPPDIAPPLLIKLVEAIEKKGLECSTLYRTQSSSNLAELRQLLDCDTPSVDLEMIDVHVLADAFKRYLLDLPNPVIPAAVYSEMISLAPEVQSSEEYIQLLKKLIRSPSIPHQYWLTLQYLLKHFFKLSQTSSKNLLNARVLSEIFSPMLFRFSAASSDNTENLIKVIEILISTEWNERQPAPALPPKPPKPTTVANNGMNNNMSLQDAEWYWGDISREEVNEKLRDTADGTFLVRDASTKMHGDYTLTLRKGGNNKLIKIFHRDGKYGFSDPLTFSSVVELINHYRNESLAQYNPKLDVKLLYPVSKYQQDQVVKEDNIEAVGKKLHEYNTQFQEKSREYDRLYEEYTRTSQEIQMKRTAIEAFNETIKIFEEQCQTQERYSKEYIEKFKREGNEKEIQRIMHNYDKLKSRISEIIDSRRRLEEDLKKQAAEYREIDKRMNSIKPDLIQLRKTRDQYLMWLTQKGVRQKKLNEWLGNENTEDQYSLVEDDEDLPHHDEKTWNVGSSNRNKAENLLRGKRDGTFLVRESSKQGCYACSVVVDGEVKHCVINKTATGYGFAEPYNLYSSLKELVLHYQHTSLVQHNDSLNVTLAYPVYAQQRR
Sequence of PI3K p110 beta/p85 alpha (P42338 whole entry): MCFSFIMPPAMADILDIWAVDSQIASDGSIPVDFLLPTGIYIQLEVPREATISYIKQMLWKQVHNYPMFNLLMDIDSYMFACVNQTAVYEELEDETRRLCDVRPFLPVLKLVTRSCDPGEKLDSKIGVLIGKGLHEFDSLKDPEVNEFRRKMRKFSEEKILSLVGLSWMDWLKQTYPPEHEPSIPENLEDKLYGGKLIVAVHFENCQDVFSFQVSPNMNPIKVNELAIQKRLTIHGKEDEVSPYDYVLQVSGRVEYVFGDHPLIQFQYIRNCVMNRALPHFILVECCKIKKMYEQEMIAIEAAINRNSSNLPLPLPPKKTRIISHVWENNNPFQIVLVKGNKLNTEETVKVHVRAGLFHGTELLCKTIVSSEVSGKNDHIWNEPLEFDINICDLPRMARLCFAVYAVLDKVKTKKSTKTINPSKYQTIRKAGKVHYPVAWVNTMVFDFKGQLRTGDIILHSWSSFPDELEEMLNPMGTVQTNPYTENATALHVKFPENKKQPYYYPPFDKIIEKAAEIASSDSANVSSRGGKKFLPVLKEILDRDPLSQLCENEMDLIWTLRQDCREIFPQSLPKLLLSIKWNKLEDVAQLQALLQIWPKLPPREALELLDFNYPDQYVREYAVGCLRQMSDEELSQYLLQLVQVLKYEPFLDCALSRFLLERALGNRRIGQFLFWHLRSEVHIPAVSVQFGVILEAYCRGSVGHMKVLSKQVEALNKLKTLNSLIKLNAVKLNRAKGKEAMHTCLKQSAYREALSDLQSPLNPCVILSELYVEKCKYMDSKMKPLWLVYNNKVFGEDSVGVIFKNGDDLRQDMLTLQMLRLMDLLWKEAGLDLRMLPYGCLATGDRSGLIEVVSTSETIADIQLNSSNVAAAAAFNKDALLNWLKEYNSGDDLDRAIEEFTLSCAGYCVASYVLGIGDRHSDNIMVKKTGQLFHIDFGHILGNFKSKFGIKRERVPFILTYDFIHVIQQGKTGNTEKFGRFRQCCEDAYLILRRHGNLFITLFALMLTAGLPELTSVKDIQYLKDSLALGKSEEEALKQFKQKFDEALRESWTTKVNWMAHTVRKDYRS

HCT-116 [8] = test: Cell cycle arrest in human HCT116 cells assessed as accumulation at S phase at 2 uM after 24 hrs by propidium iodide staining based flow cytometry (reference value: 11.36%); type: functional
HCT-116 [9] = test: Induction of apoptosis in human HCT116 cells assessed as early apoptotic cells at 1 uM after 48 hrs by Annexin V-FITC/propidium iodide staining based flow cytometry (reference value: 3.72%); type: functional
HCT-116 [10] = test: Downregulation of cyclin D1 protein expression in human HCT116 cells at 0.5 to 2 uM after 24 hrs by Western blot analysis; type: functional, cell-based
HCT-116 [11] = test: Cell cycle arrest in human HCT116 cells assessed as accumulation at G0/G1 phase at 1 uM after 24 hrs by propidium iodide staining based flow cytometry (reference value: 44.01%); type: functional
[12] = target: PI3-kinase p110-delta/p85-alpha (Homo sapiens, UniProt O00329); test: Inhibition of recombinant N-terminal full length human PI3K p110delta/recombinant untagged full length human p85alpha expressed in baculovirus infected Sf21 insect cells by ELISA
Sequence of PI3-kinase p110-delta/p85-alpha (P27986 whole entry, canonical isoform): as the sequence (P27986 whole entry) above
Sequence of PI3-kinase p110-delta/p85-alpha (O00329 whole entry, canonical isoform): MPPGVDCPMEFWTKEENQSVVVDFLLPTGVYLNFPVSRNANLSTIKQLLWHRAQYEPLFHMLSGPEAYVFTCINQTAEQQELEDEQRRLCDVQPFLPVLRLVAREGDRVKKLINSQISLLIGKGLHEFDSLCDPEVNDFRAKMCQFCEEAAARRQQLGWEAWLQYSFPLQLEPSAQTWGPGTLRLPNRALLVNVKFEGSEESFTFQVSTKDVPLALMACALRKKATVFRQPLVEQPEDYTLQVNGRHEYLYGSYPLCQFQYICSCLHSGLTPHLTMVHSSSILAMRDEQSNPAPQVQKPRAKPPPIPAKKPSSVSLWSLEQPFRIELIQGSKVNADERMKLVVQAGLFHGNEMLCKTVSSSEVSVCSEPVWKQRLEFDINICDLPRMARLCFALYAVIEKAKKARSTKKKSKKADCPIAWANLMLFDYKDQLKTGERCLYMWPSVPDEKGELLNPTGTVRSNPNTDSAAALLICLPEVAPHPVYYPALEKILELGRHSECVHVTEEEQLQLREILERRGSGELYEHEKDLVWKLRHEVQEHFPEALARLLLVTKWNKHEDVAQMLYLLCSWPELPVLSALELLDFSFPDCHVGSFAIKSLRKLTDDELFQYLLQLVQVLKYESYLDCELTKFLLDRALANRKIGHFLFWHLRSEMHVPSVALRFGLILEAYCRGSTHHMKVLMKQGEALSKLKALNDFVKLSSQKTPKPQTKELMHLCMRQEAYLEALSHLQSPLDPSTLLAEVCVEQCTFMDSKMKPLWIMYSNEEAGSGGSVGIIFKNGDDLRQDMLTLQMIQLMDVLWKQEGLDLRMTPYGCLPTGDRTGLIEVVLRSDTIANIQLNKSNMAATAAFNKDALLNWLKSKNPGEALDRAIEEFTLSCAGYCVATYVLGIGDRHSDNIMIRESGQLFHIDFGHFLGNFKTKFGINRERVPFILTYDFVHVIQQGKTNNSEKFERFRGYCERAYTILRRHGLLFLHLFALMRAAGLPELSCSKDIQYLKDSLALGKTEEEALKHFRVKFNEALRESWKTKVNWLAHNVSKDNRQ

[13] = target: Phosphatidylinositol 4,5-bisphosphate 3-kinase catalytic subunit alpha isoform (Homo sapiens) (UniProt P42336); test: Inhibition of PI3Kalpha phosphorylation in human HCT116 cells at 0.5 to 2 uM after 24 hrs by Western blot analysis; type: cell-based
HCT-116 [14] = test: Antiproliferative activity against human HCT116 cells after 72 hrs by sulforhodamine B assay; type: functional, cell-based; conditions: HCT-116, 72 h
HCT-116 [15] = test: Induction of apoptosis in human HCT116 cells assessed as viable cells at 2 uM after 48 hrs by Annexin V-FITC/propidium iodide staining based flow cytometry (reference value: 94.06%); type: functional; conditions: HCT-116, 48 h, read-out: Activity
HCT-116 [16] = test: Induction of apoptosis in human HCT116 cells assessed as late apoptotic cells at 2 uM after 48 hrs by Annexin V-FITC/propidium iodide staining based flow cytometry (reference value: 1.43%); type: functional
HCT-116 [17] = test: Induction of apoptosis in human HCT116 cells assessed as early apoptotic cells at 4 uM after 48 hrs by Annexin V-FITC/propidium iodide staining based flow cytometry (reference value: 3.72%); type: functional
MCF7 = test: Antiproliferative activity against human MCF7 cells after 72 hrs by sulforhodamine B assay; type: functional, cell-based; conditions: MCF7, 72 h
HCT-116 [18] = test: Induction of apoptosis in human HCT116 cells assessed as decrease in Bcl-2 level at 1 to 4 uM after 48 hrs by Western blot analysis; type: functional, cell-based
A549 = test: Antiproliferative activity against human A549 cells after 72 hrs by sulforhodamine B assay; type: functional, cell-based; conditions: A549, 72 h
HCT-116 [19] = test: Induction of apoptosis in human HCT116 cells assessed as late apoptotic cells at 4 uM after 48 hrs by Annexin V-FITC/propidium iodide staining based flow cytometry (reference value: 1.43%); type: functional
HCT-116 [20] = test: Cell cycle arrest in human HCT116 cells assessed as accumulation at subG1 phase at 2 uM after 24 hrs by propidium iodide staining based flow cytometry (reference value: 2.25%); type: functional
HCT-116 [21] = test: Upregulation of p27 protein expression in human HCT116 cells at 0.5 to 2 uM after 24 hrs by Western blot analysis; type: functional, cell-based
HCT-116 [22] = test: Cell cycle arrest in human HCT116 cells assessed as accumulation at G2/M phase at 2 uM after 24 hrs by propidium iodide staining based flow cytometry (reference value: 22.24%); type: functional
HCT-116 [23] = test: Cell cycle arrest in human HCT116 cells assessed as accumulation at S phase at 0.5 uM after 24 hrs by propidium iodide staining based flow cytometry (reference value: 11.36%); type: functional
[24] = target: PI3-kinase p110-alpha/p85-alpha (Homo sapiens, UniProt P42336); test: Inhibition of recombinant N-terminal His6-tagged full length PI3K p110alpha (unknown origin)/recombinant untagged full length p85alpha (unknown origin) expressed in baculovirus infected Sf21 insect cells by ELISA
HCT-116 [25] = test: Induction of apoptosis in human HCT116 cells assessed as necrotic cells at 2 uM after 48 hrs by Annexin V-FITC/propidium iodide staining based flow cytometry (reference value: 0.79%); type: functional
HCT-116 [26] = test: Induction of apoptosis in human HCT116 cells assessed as viable cells at 4 uM after 48 hrs by Annexin V-FITC/propidium iodide staining based flow cytometry (reference value: 94.06%); type: functional; conditions: HCT-116, 48 h, read-out: Activity
HCT-116 [27] = test: Induction of apoptosis in human HCT116 cells assessed as increase in cleaved caspase 9 level at 4 uM after 48 hrs by Western blot analysis; type: functional, cell-based
HCT-116 [28] = test: Induction of apoptosis in human HCT116 cells assessed as necrotic cells at 4 uM after 48 hrs by Annexin V-FITC/propidium iodide staining based flow cytometry (reference value: 0.79%); type: functional
HCT-116 [29] = test: Cell cycle arrest in human HCT116 cells assessed as accumulation at subG1 phase at 1 uM after 24 hrs by propidium iodide staining based flow cytometry (reference value: 2.25%); type: functional
HCT-116 [30] = test: Induction of apoptosis in human HCT116 cells assessed as late apoptotic cells at 1 uM after 48 hrs by Annexin V-FITC/propidium iodide staining based flow cytometry (reference value: 1.43%); type: functional
HCT-116 [31] = test: Cell cycle arrest in human HCT116 cells assessed as accumulation at G0/G1 phase at 0.5 uM after 24 hrs by propidium iodide staining based flow cytometry (reference value: 44.01%); type: functional
[32] = target: Phosphatidylinositol 4,5-bisphosphate 3-kinase catalytic subunit alpha isoform (Homo sapiens) (UniProt P42336); test: Inhibition of PI3Kalpha in human HCT116 cells assessed as reduction in GSK3beta phosphorylation at 0.5 to 2 uM after 24 hrs by Western blot analysis; type: cell-based
HCT-116 [33] = test: Cell cycle arrest in human HCT116 cells assessed as accumulation at G2/M phase at 1 uM after 24 hrs by propidium iodide staining based flow cytometry (reference value: 22.24%); type: functional
MDA-MB-231 = test: Antiproliferative activity against human MDA-MB-231 cells after 72 hrs by sulforhodamine B assay; type: functional, cell-based; conditions: MDA-MB-231, 72 h
HCT-116 [34] = test: Induction of apoptosis in human HCT116 cells assessed as early apoptotic cells at 2 uM after 48 hrs by Annexin V-FITC/propidium iodide staining based flow cytometry (reference value: 3.72%); type: functional
HCT-116 [35] = test: Induction of apoptosis in human HCT116 cells assessed as increase in Bax level at 1 to 4 uM after 48 hrs by Western blot analysis; type: functional, cell-based
[36] = target: Phosphatidylinositol 4,5-bisphosphate 3-kinase catalytic subunit gamma isoform (Homo sapiens, UniProt P48736); test: Inhibition of recombinant human N-terminal His6-tagged full length PI3K p120gamma expressed in baculovirus infected Sf21 insect cells by ELISA
Sequence of Phosphatidylinositol 4,5-bisphosphate 3-kinase catalytic subunit gamma isoform (P48736 whole entry, canonical isoform): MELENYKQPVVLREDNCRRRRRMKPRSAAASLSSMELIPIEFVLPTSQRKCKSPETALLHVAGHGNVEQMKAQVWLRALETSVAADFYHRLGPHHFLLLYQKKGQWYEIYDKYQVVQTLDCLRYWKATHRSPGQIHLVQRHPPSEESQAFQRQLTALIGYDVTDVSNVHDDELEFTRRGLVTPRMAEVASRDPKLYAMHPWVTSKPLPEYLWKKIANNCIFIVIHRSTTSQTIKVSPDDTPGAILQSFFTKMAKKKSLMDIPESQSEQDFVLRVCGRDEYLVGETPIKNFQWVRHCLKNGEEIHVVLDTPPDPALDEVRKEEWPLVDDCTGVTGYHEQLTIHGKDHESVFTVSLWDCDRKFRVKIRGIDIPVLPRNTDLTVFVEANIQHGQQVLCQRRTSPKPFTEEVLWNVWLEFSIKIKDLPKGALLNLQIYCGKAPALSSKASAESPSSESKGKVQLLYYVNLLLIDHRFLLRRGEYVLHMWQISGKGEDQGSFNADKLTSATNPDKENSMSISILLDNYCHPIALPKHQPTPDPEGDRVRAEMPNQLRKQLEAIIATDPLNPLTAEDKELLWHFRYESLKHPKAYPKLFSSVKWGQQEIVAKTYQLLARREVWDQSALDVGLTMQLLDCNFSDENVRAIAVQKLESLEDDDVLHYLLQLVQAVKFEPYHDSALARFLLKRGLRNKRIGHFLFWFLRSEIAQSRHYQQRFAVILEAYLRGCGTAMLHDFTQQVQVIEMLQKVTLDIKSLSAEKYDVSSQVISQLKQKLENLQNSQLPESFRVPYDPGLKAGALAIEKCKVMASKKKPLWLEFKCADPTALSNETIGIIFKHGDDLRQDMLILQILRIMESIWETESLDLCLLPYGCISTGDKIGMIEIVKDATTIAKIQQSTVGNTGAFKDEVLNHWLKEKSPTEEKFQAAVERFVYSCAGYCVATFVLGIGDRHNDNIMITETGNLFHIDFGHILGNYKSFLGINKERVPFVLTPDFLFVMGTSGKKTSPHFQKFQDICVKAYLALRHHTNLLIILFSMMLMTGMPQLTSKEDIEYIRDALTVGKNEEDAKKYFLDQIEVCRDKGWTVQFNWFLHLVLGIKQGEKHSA

SK-HEP1 = test: Antiproliferative activity against human SKHEP1 cells after 72 hrs by sulforhodamine B assay; type: functional, cell-based; conditions: SK-HEP1, 72 h
HCT-116 [37] = test: Induction of apoptosis in human HCT116 cells assessed as increase in cleaved PARP level at 4 uM after 48 hrs by Western blot analysis; type: functional, cell-based
[38] = target: Phosphatidylinositol 4,5-bisphosphate 3-kinase catalytic subunit alpha isoform (Homo sapiens) (UniProt P42336); test: Inhibition of PI3Kalpha in human HCT116 cells assessed as reduction in Akt expression level at Ser473 residues at 1 uM after 8 hrs by DAPI staining based confocal microscopy; type: cell-based
HCT-116 [39] = test: Cell cycle arrest in human HCT116 cells assessed as accumulation at G2/M phase at 0.5 uM after 24 hrs by propidium iodide staining based flow cytometry (reference value: 22.24%); type: functional
HCT-116 [40] = test: Induction of apoptosis in human HCT116 cells assessed as increase in cytochrome C level at 1 to 4 uM after 48 hrs by Western blot analysis; type: functional, cell-based
HCT-116 [41] = test: Cell cycle arrest in human HCT116 cells assessed as accumulation at S phase at 1 uM after 24 hrs by propidium iodide staining based flow cytometry (reference value: 11.36%); type: functional
[42] = target: Phosphatidylinositol 4,5-bisphosphate 3-kinase catalytic subunit alpha isoform (Homo sapiens) (UniProt P42336); test: Inhibition of PI3Kalpha in human HCT116 cells assessed as reduction in GSK3beta phosphorylation after 24 hrs by Western blot analysis; type: cell-based
SNU-638 = test: Antiproliferative activity against human SNU638 cells after 72 hrs by sulforhodamine B assay; type: functional, cell-based; conditions: SNU-638, 72 h
HCT-116 [43] = test: Induction of apoptosis in human HCT116 cells assessed as necrotic cells at 1 uM after 48 hrs by Annexin V-FITC/propidium iodide staining based flow cytometry (reference value: 0.79%); type: functional

- inhibition [3]: Active
- inhibition [4]: Dose-dependent effect
- IC50 (PI3K p110 beta/p85 alpha): 0.396 µM
- IC50 [12]: 0.102 µM
- inhibition [13]: Active
- IC50 (HCT-116 [14]): 0.16 µM
- IC50 (MCF7): 3.24 µM
- IC50 (A549): 1.32 µM
- IC50 [24]: 0.0136 µM
- inhibition [32]: Active
- IC50 (MDA-MB-231): 0.28 µM
- IC50 [36]: 0.117 µM
- IC50 (SK-HEP1): 0.28 µM
- inhibition [38]: Active
- inhibition [42]: Dose-dependent effect
- IC50 (SNU-638): 0.48 µM
Structure (SMILES): CCCCS(=O)(=O)Nc1cc(-c2ccc3ncnc(NCCN(C)C)c3c2)cnc1OC
- Activity (HCT-116 [1]): 61.01%
- IC50 (MRC5): 18.5 µM
- Activity (HCT-116 [2]): Active
- viability at 1 µM (HCT-116 [5]): 85.5%
- Activity (HCT-116 [6]): Active
- IC50 (HEK293): 12.6 µM
- Activity (HCT-116 [7]): 3.57%
- Activity (HCT-116 [8]): 13.65%
- Activity (HCT-116 [9]): 10.13%
- Activity (HCT-116 [10]): Active
- Activity (HCT-116 [11]): 54.1%
- viability at 2 µM (HCT-116 [15]): 84.7%
- Activity (HCT-116 [16]): 3.7%
- Activity (HCT-116 [17]): 11.11%
- Activity (HCT-116 [18]): Active
- Activity (HCT-116 [19]): 4.6%
- Activity (HCT-116 [20]): 2.51%
- Activity (HCT-116 [21]): Active
- Activity (HCT-116 [22]): 10.99%
- Activity (HCT-116 [23]): 10.3%
- Activity (HCT-116 [25]): 1.39%
- viability at 4 µM (HCT-116 [26]): 83.3%
- Activity (HCT-116 [27]): Active
- Activity (HCT-116 [28]): 1.02%
- Activity (HCT-116 [29]): 2.91%
- Activity (HCT-116 [30]): 2.89%
- Activity (HCT-116 [31]): 46.16%
- Activity (HCT-116 [33]): 15.33%
- Activity (HCT-116 [34]): 10.2%
- Activity (HCT-116 [35]): Active
- Activity (HCT-116 [37]): Active
- Activity (HCT-116 [39]): 20.53%
- Activity (HCT-116 [40]): Active
- Activity (HCT-116 [41]): 13.02%
- Activity (HCT-116 [43]): 1.5%

- IC50 (HCT-116 [14]): 5.72 µM
- IC50 (MCF7): 18.7 µM
- IC50 (A549): 9.42 µM
- IC50 (MDA-MB-231): 4.32 µM
- IC50 (SK-HEP1): 8.98 µM
- IC50 (SNU-638): 6.66 µM
Structure (SMILES): CCCCS(=O)(=O)Nc1cc(-c2ccc3ncnc(NCc4ccncc4)c3c2)cnc1OC
